Here are results for 51 compounds from PubChem BioAssay AID1996.

Converted amounts (≈) assume the structure as drawn.

The conditions of the data set: buffer; pH 7.4; 200.0 µM.
A word on the solubility (kinetic): it is solubility judged after dilution from a stock solution rather than from solid. The compound `CC(C)CCNS(=O)(=O)c1cc2c3c(c1)CCN3C(=O)CC2` displayed a solubility (kinetic) of 46 µg/mL (≈ 143 µM).
In turn, `CCN(CC(=O)NCc1ccc(Cl)cc1)C(=O)c1cc(S(=O)(=O)N2CCOCC2)ccc1C` gave a kinetic solubility greater than 74.1 µg/mL.
With `CN(C(=O)/C=C/c1ccc(F)cc1)C1CCCCC1`, the solubility (kinetic) is greater than 39.2 µg/mL.
The compound `O=C1Nc2ccc(Br)cc2C1(O)c1ccccc1` (stereo unspecified) displayed a solubility (kinetic) greater than 45.6 µg/mL.
Next, `COc1cccc(NC(=O)c2cnc(SC)nc2)c1`: 14.3 µg/mL (≈ 51.9 µM); `CC(C(=O)O)n1c2ccccc2c2cnn(C)c(=O)c21` (stereo unspecified): greater than 40.7 µg/mL; `Cc1ccc(NP(=O)(c2ccccc2)c2nc3ccccc3s2)cc1` (stereo unspecified): 2.2 µg/mL (≈ 6.04 µM).
Take `O=C(OC1CCOC1=O)c1cc(Cl)ccc1[N+](=O)[O-]` (stereo unspecified): the kinetic solubility came out at 42.1 µg/mL (≈ 147 µM).
As to `CCN1CCc2c(OCC(=O)Nc3ccc4c(c3)OCCO4)cccc2C1=O`, the solubility (kinetic) came out at 29.8 µg/mL (≈ 77.9 µM).
`Cc1ccc(NS(=O)(=O)c2cc(C(=O)N(C)C3CCN(C)CC3)ccc2Cl)cc1Cl.O=C(O)C(=O)O` yielded a solubility (kinetic) greater than 84.1 µg/mL.
As for `O=C1CN(C(=O)COC(=O)[C@@H]2CCCN2S(=O)(=O)c2ccc(Cl)cc2)c2ccccc2N1`, the kinetic solubility turned out to be 59.1 µg/mL (≈ 124 µM).
With `CC(C)c1ccccc1NC(=O)Nc1ccc2c(c1)OCO2`, the solubility (kinetic) stood at 2.7 µg/mL (≈ 9.05 µM).
With `CC(C)NC(=O)COc1ccc(S(=O)(=O)N2CCCC2)cc1`, the solubility (kinetic) was greater than 49 µg/mL.
As to `COc1ccc(CCNS(=O)(=O)c2cccc([N+](=O)[O-])c2)cc1`, the kinetic solubility turned out to be 42.8 µg/mL (≈ 127 µM).
The compound `CCc1nc2sc3c(Cl)ncnc3c2c2c1CCCC2` displayed a kinetic solubility of less than 0.2 µg/mL.
Compound `Cc1ccc(C)c(N2CCN(C(=O)C3CCC3)CC2)c1` returned a solubility (kinetic) greater than 40.9 µg/mL.
On to `N#CC(C(=O)c1ccccc1Cl)=C1SCCCS1`, for which the solubility (kinetic) amounted to 9.4 µg/mL (≈ 31.8 µM).
`Cc1ccc(N2CCN(CC(O)COc3ccccc3)CC2)cc1` (stereo unspecified) came in with a kinetic solubility of 30.1 µg/mL (≈ 92.2 µM).
`CCNC(=O)[C@H]1O[C@@H](n2cnc3c(N)ncnc32)[C@H](O)[C@@H]1O` came in with a kinetic solubility greater than 46.2 µg/mL.
On to `COc1ccc(Nc2ncc(F)c(N3CCOCC3)n2)cc1`, for which the kinetic solubility was 3.8 µg/mL (≈ 12.5 µM).
For `OC(COc1ccc(F)cc1Cl)CN1CCc2ccccc2C1` (stereo unspecified) the value was 37.4 µg/mL (≈ 111 µM).
In the case of `O=C1NCCN1Cc1ccc(Cl)cc1`, the solubility (kinetic) amounted to 26.3 µg/mL (≈ 125 µM).
Take `O=C(Cc1cccs1)N1CCN(c2cccc(Cl)c2)CC1`: the solubility (kinetic) turned out to be 42.9 µg/mL (≈ 134 µM).
In the case of `Cc1cc(Nc2cccc(F)c2)nc(N2CCOCC2)n1`, the kinetic solubility came out at 36.2 µg/mL (≈ 126 µM). This solubility kinetic and that of the compound before are within 1.5-fold of each other.
`O=C1c2cccc3c(O)ccc(c23)C(=O)N1c1ccc(Cl)cc1` came in with a solubility (kinetic) of 16.2 µg/mL (≈ 50 µM). Against the preceding compound, the solubility kinetic is about 2.2-fold lower.
For `COc1ccc(N(CC(=O)Nc2cccnc2)S(C)(=O)=O)cc1` the value was greater than 50.3 µg/mL.
`Cc1cccc(N2CC(C(=O)OCC(=O)Nc3sccc3C(N)=O)CC2=O)c1C` (stereo unspecified): the solubility (kinetic) is 6.5 µg/mL (≈ 15.6 µM).
Compound `O=C1Nc2ccccc2Nc2ccccc21` came in with a kinetic solubility of 20.9 µg/mL (≈ 99.4 µM).
On to `O=C1CCC(C(=O)Nc2ccc(Cl)cc2)N1` (stereo unspecified), for which the kinetic solubility was greater than 35.8 µg/mL.
The compound `CCOc1ccc(S(=O)(=O)NC2CCCC2)cc1` registered a kinetic solubility of 18.3 µg/mL (≈ 67.9 µM).
Take `COC(=O)c1ccccc1NC(=O)NCCc1ccccc1OC.Cl`: the kinetic solubility came to 6.3 µg/mL. Compared with the last compound, the solubility kinetic is about 2.9-fold lower.
`CN(C)/C=N/c1nccc(-c2cccs2)n1`: the solubility (kinetic) is greater than 34.8 µg/mL.
For `Cc1cc2oc(=O)cc(CN3CCOCC3)c2c(C)c1Cl`, the solubility (kinetic) worked out at 0.9 µg/mL (≈ 2.92 µM).
`O=C(Cc1ccc(Cl)c(Cl)c1)Nc1cccnc1` gave a kinetic solubility greater than 42.2 µg/mL.
With `Cc1cc(C)cc(NC(=S)N2CCN(c3ccccn3)CC2)c1`, the solubility (kinetic) came out at 9.2 µg/mL (≈ 28.2 µM).
For `Cn1nc(-c2ccc(Cl)cc2)cc1NC(=O)CC(C)(C)CC(=O)O` the value was greater than 52.5 µg/mL; for `COc1ccc(-c2csc(N=C(N)N)n2)cc1`, 12.2 µg/mL (≈ 49.1 µM); for `CCOC(=O)Cc1csc(NC(=O)Nc2ccc(Cl)cc2)n1`, 1.3 µg/mL (≈ 3.83 µM).
Next, `O=C(Nc1cccc(O)c1)c1ccccc1[N+](=O)[O-]`: 36.3 µg/mL (≈ 141 µM).
`CN(C)Cc1cccc([N+](=O)[O-])c1O` displayed a kinetic solubility greater than 29.4 µg/mL.
In turn, `CC(=C\c1ccccc1)/C=C1/SC(=S)N(CCCC(=O)O)C1=O` showed a kinetic solubility greater than 52.1 µg/mL.
Regarding `CN(CC(=O)Nc1ccc(F)cc1[N+](=O)[O-])Cc1ccccc1`, the solubility (kinetic) was 1 µg/mL (≈ 3.15 µM).
The compound `CC(=O)N1CCN(C(=O)c2ccc(Oc3ccccc3)cc2)CC1` showed a kinetic solubility of 46.6 µg/mL (≈ 144 µM).
`Cc1sc2ncnc(SCC(=O)NC3CCCC3)c2c1C` came in with a kinetic solubility of 5.2 µg/mL (≈ 16.2 µM). Against the preceding compound, the solubility kinetic is about 9-fold lower.
Next, `O=c1[nH]c2ccccc2[nH]c1=O`: greater than 24.3 µg/mL; `COc1ccc2nc(SCC(=O)NCC3CCCO3)c(C#N)cc2c1` (stereo unspecified): 5.2 µg/mL (≈ 14.5 µM); `Cn1nc(C(=O)OCC(=O)NCCc2ccccc2)c2ccccc2c1=O`: greater than 54.8 µg/mL.
With `CSc1nsc(SC)c1C(=O)O`, the solubility (kinetic) is greater than 33.2 µg/mL.
In turn, `O=C(Nc1ccccc1)Nc1ccc(Nc2ccccc2)cc1` yielded a solubility (kinetic) of less than 0.2 µg/mL.
`O=C(NN=Cc1ccc(O)cc1)c1ccccc1NS(=O)(=O)c1cccs1` yielded a solubility (kinetic) greater than 60.2 µg/mL.
For `O=C1c2ccccc2-c2nc3ccccc3cc21` the value was less than 0.5 µg/mL.
